Source: patent US11534457B2, “Use of dextran sulfate” (priority 2017, dated 2022)

System: severe traumatic brain injury (sTBI)
Test: sTBI in rats, brain gene expression arrays and pathway analysis (Example 9)
Assay type: in vivo, Male Wistar rats
Design: key to z score, canonical pathway Dendritic Cell Maturation / z score, canonical pathway Adrenomedullin Signaling pathway / z score, canonical pathway Endothelin-1 Signaling / effect on canonical pathway Adrenomedullin Signaling pathway / effect on canonical pathway Endothelin-1 Signaling / effect on canonical pathway Dendritic Cell Maturation / Ingenuity canonical pathway Adrenomedullin signaling pathway, z score / Ingenuity canonical pathway FLT3 Signaling in Hematopoietic Progenitor Cells, z score / Ingenuity canonical pathway Opioid Signaling Pathway, z score / Ingenuity canonical pathway VDR/RXR Activation, z score / Ingenuity canonical pathway Neuropathic Pain Signaling In Dorsal Horn Neurons, z score / Ingenuity canonical pathway STAT3 Pathway, z score / Ingenuity canonical pathway IL-1 Signaling, z score / Ingenuity canonical pathway IL-6 Signaling, z score / Ingenuity canonical pathway NF-κB Signaling, z score / Ingenuity canonical pathway Role of NFAT in Cardiac Hypertrophy, z score / Ingenuity canonical pathway PPARα/RXRα Activation, z score: *: ambiguous effect
Conditions: for effect of TBI on molecular processes and diseases: given 30 minutes after injury; for TBI-induced alterations in neurodegeneration and scarring-related canonical pathways: given within 30 minutes of TBI
Description: The experimental protocol used in this study was approved by the Ethical Committee of the Catholic University of Rome, according to international standards and guidelines for animal care. Male Wistar rats of 300-350 g body weight were fed with standard laboratory diet and water ad libitum in a controlled environment. As the anesthetic mixture, the animals received 35 mg/kg b.w. ketamine and 0.25 mg/kg body weight midazolam by i.p. injection. Severe traumatic brain injury (sTBI) was induced by dropping a 450 g weight from 2 m height on to the rat head that had been protected by a metal disk previously fixed on the skull, according to the “weight drop” impact acceleration model (Marmarou et al., A new model of diffuse brain injury in rats. Part I: Pathophysiology and biomechanics. J Neurosurg. 1994; 80: 291-300). […] At the end of each period of treatment, rats were anesthetized again and then immediately sacrificed.
LMW-DS (Tikomed AB) was provided at a stock concentration of 20 mg/ml and was kept in a temperature-monitored refrigerator at 4° C. LMW-DS aliquots were diluted to the appropriate dosing concentration in sterile saline prior to delivery of a single subcutaneous injection.
Three doses of LMW-DS were administered subcutaneously 30 minutes post-TBI. The animals were sacrificed at 2 days post-TBI. The animals were divided into the following subgroups:
Three doses of LMW-DS were administered subcutaneously 30 minutes post-TBI. The animals were sacrificed at 7 days post-TBI. The animals were divided into the following subgroups:
An in vivo craniectomy was performed on all animals during anesthesia. After carefully removing the rat's skull, the brain was exposed and removed with a surgical spatula and quickly dropped in RNALater and preserved at 4° C. for further processing.
RNA extraction and array processing was carried out by SourceBioscience. The arrays used were the Agilent Rat expression arrays.
Statistical analysis was carried out using the Metaboanalyst software package. Gene expression changes of 10% with a p<0.05 were regarded as significant.
Pathway analysis of the differentially regulated genes was carried out using the Ingenuity pathway analysis package. The analysis was performed with special reference to pathways and molecular processes and diseases associated with neurodegenerative disease, including dementia, Alzheimer's disease, ALS, TBI and stroke, and with scarring and fibrosis, including glaucoma and normal pressure hydrocephalus (NPH) after subarachnoid haemorrhage.

[1] = TBI + 15 mg/kg repeat dose LMW-DS, after 7 days, TBI: Inhibited
[2] = TBI + 15 mg/kg repeated dose LMW-DS, 7 days after TBI
[3] = TBI + 15 mg/kg repeated dose LMW-DS, 7 days after TBI, relative to control

Substance: low molecular weight dextran sulfate [LMW-DS]
- Diseases or functions annotation: Differentiation of bone cells [1]: Inhibited
- Diseases or functions annotation: Differentiation of connective tissue cells [1]: Inhibited
- Diseases or functions annotation: Digestive system cancer [1]: Inhibited
- Diseases or functions annotation: Epithelial neoplasm [1]: Inhibited
- Diseases or functions annotation: Formation of cellular protrusions [1]: Activated
- Diseases or functions annotation: Formation of intercellular junctions [1]: Activated
- Diseases or functions annotation: Learning [1]: Activated
- Diseases or functions annotation: Microtubule dynamics [1]: Activated
- Diseases or functions annotation: Migration of cells [1]: Activated
- Diseases or functions annotation: Morphogenesis of neurons [1]: Activated
- Diseases or functions annotation: Neurotransmission [1]: Activated
- Diseases or functions annotation: Non-hematological solid tumor [1]: Inhibited
- Diseases or functions annotation: Non-melanoma solid tumor [1]: Inhibited
- Diseases or functions annotation: Nonhematologic malignant neoplasm [1]: Inhibited
- Diseases or functions annotation: Organization of cytoplasm [1]: Activated
- Diseases or functions annotation: Organization of cytoskeleton [1]: Activated
- Diseases or functions annotation: Quantity of Ca^2+ [1]: Activated
- Diseases or functions annotation: Quantity of carbohydrate [1]: Inhibited
- Diseases or functions annotation: Quantity of cells [1]: Activated
- Diseases or functions annotation: Size of body [1]: Activated
- Diseases or functions annotation: Transport of ion [1]: Activated
- Diseases or functions annotation: Transport of metal [1]: Activated
- Diseases or functions annotation: Transport of molecule [1]: Activated
- Diseases or functions annotation: Tumorigenesis of tissue [1]: Inhibited
- Ingenuity canonical pathway: 3-phosphoinositide Degradation [2]: Activated
- Ingenuity canonical pathway: Acute Phase Response Signaling [2]: Inhibited
- Ingenuity canonical pathway: Adrenomedullin signaling pathway [2]: Inhibited
- Ingenuity canonical pathway: B Cell Receptor Signaling [2]: Inhibited
- Ingenuity canonical pathway: Ephrin Receptor Signaling [2]: Activated
- Ingenuity canonical pathway: Fc Epsilon RI Signaling [2]: Inhibited
- Ingenuity canonical pathway: G Beta Gamma Signaling [2]: Activated
- Ingenuity canonical pathway: NF-κB Signaling [2]: Activated
- Ingenuity canonical pathway: Opioid Signaling Pathway [2]: Activated
- Ingenuity canonical pathway: Role of NFAT in Cardiac Hypertrophy [2]: Activated
- Ingenuity canonical pathway: Role of NFAT in Regulation of the Immune Response [2]: Activated
- Ingenuity canonical pathway: Signaling by Rho Family GTPases [2]: Activated
- Ingenuity canonical pathway: Superpathway of Inositol Phosphate Compounds [2]: Activated
- Ingenuity canonical pathway: Synaptic Long Term Depression [2]: Activated
- z score: Abdominal cancer [2]: −2.015
- z score: Abdominal neoplasm [2]: −1.116
- z score: Adenocarcinoma [2]: −0.944
- z score: Branching of cells [2]: 0.397
- z score: Carcinoma [2]: −0.358
- z score: Cell movement [2]: 0.154
- z score: Cell-cell contact [2]: 1.504
- z score: Concentration of hormone [2]: 0.825
- z score: Concentration of lipid [2]: −0.204
- z score: Dendritic growth/branching [2]: −0.169
- z score: Development of connective tissue cells [2]: −0.005
- z score: Development of gap junctions [2]: 0.849
- z score: Development of neurons [2]: 0.688
- z score: Developmental process of synapse [2]: 0.849
- z score: Differentiation of bone cells [2]: −0.237
- z score: Differentiation of connective tissue cells [2]: −0.011
- z score: Digestive organ tumor [2]: −1.481
- z score: Digestive system cancer [2]: −1.513
- z score: Epithelial neoplasm [2]: −0.999
- z score: Extracranial solid tumor [2]: 0.529
- z score: Formation of cellular protrusions [2]: 1.183
- z score: Formation of intercellular junctions [2]: 0.391
- z score: Gastrointestinal tumor [2]: −1.284
- z score: Hematologic cancer [2]: −2.216
- z score: Hematopoietic neoplasm [2]: −2.027
- z score: Learning [2]: 0.469
- z score: Microtubule dynamics [2]: 1.962
- z score: Migration of cells [2]: 0.271
- z score: Morphogenesis of neurons [2]: 0.205
- z score: Neurotransmission [2]: 1.214
- z score: Non-hematologic malignant neoplasm [2]: −0.223
- z score: Non-hematological solid tumor [2]: −0.913
- z score: Non-melanoma solid tumor [2]: −1.478
- z score: Obesity [2]: 2.18
- z score: Organization of cytoplasm [2]: 1.922
- z score: Organization of cytoskeleton [2]: 1.922
- z score: Quantity of carbohydrate [2]: −0.017
- z score: Quantity of cells [2]: 0.493
- z score: Seizure disorder [2]: 1.376
- z score: Size of body [2]: 0.67
- z score: Skin lesion [2]: 0.532
- z score: Transport of ion [2]: 1.109
- z score: Transport of metal [2]: 1
- z score: Transport of molecule [2]: 1.143
- z score: Tumorigenesis of tissue [2]: −1.333
- Ingenuity canonical pathway 3-phosphoinositide Degradation, z score [3]: 2
- Ingenuity canonical pathway Acute Phase Response Signaling, z score [3]: −0.447
- Ingenuity canonical pathway Adrenomedullin signaling pathway, z score [3]: −0.378
- Ingenuity canonical pathway B Cell Receptor Signaling, z score [3]: −0.447
- Ingenuity canonical pathway Ephrin Receptor Signaling, z score [3]: 2.236
- Ingenuity canonical pathway FLT3 Signaling in Hematopoietic Progenitor Cells, z score [3]: *
- Ingenuity canonical pathway Fc Epsilon RI Signaling, z score [3]: −1
- Ingenuity canonical pathway G Beta Gamma Signaling, z score [3]: 2.236
- Ingenuity canonical pathway IL-1 Signaling, z score [3]: *
- Ingenuity canonical pathway IL-6 Signaling, z score [3]: *
- Ingenuity canonical pathway NF-κB Signaling, z score [3]: 0.447
- Ingenuity canonical pathway Neuropathic Pain Signaling In Dorsal Horn Neurons, z score [3]: *
- Ingenuity canonical pathway Opioid Signaling Pathway, z score [3]: 0.816
- Ingenuity canonical pathway Role of NFAT in Cardiac Hypertrophy, z score [3]: 0.447
- Ingenuity canonical pathway Role of NFAT in Regulation of the Immune Response, z score [3]: 2.236
- Ingenuity canonical pathway Signaling by Rho Family GTPases, z score [3]: 1
- Ingenuity canonical pathway Superpathway of Inositol Phosphate Compounds, z score [3]: 2
- Ingenuity canonical pathway Synaptic Long Term Depression, z score [3]: 1.342
- effect of TBI on molecular processes and diseases (2 days): mostly abolished
- effect of TBI on molecular processes and diseases (7 days): mostly abolished
- TBI-induced alterations in neurodegeneration and scarring-related canonical pathways (2 days): counteracted
- TBI-induced alterations in neurodegeneration and scarring-related canonical pathways (7 days): counteracted
